Columns and labels:
[1] = test system: HPRT1 exons 2 and 3, HD primary fibroblast cell line GM09197; assay: HPRT1 sequence analysis by SMRT-CCS sequencing (general mutagen test); format: cell-based, human
Source text: Towards assessing whether NA-treatment acted as a general mutagen to sequences other than CAG slip-outs, the high read accuracy and depth of single molecule, real time, circular consensus sequencing (SMRT-CCS) was harnessed. Single-molecule sequencing was done on the HPRT1 gene—widely used as a surrogate indicator of the global effect of induced genetic variation. Single-molecule sequencing can detect mutations at frequencies below 0.5% with no false positives. Panel A of FIG. 13 is a schematic of HPRT1 sequencing for mutation detection. Briefly, cells were grown under identical conditions differing only by the addition of NA (50 μM) or saline, DNAs were isolated, HPRT1 exons 2 and 3 PCR amplified and sequenced. Panel B of FIG. 13 are graphs showing the comparison of sequence variations between NA-treated and saline-treated samples. We chose to compare the single-molecule sequence reads of individual X chromosome-linked HPRT1 alleles (exons 2 and 3, 2,897 nucleotides) from the HD patient-derived cells that had been NA- or saline-treated. In this manner, each read would represent a single cell. Graphs show the distribution of sequence variants by relative mutation rate between three experimental replicates of NA-treated and saline-treated cells sequenced with PacBio single-molecule long reads.
DNAs were extracted from three independent NA treatments of the HD primary fibroblast cell line GM09197 and from three independent untreated control cells. HPRT1 exons 2 and 3 were amplified using the high fidelity Platinum Taq DNA Polymerase (Invitrogen, Cat #11304) and the primers shown in Table 1. Amplification products were analyzed using single molecule, real-time (SMRT) sequencing on the PacBio RSII instrument (see FIG. 13A).
Specifically, a ˜2.8 kb PCR product spanning exons two and three of HPRT1 was sequenced for three replicates of HD patient-derived cells in both NA- and saline-treated colonies on a Pacific Biosciences (PacBio) RSII with P6-C4v2 chemistry, 360 minute movies, and one SMRT cell per replicate/treatment combination. Individual molecules from the original cell colony were represented by single long reads from the corresponding SMRT cell. PacBio's SMRTbell construct allows a single molecule to be sequenced one or more times in a single long read based on the number of “passes” the sequencing polymerase makes around the SMRTbell insert. An average of 99,023 distinct reads were sequenced per SMRT cell. The resulting long reads contained an average of ˜7 passes through the insert sequence. The average median insert length per SMRT cell was 2,873 bp. […] Based on these filters, an average of 1,343 consensus sequences per replicate/treatment pair were produced with a range of up to 2,402 sequences. […] To estimate the mutation rate for each replicate/treatment combination, the number of times a specific variant occurred was calculated between high-quality PacBio consensus reads at a specific position in the human reference (GRCh38) divided by the total number of high-quality reads aligned across each position. For each replicate, the relative mutation rate was calculated between NA- and saline-treated cells as the mutation rate for NA-treated cells minus the rate for saline-treated cells and identified excess mutation rates based on an absolute relative rate >0.5%. […]

long (CAG)20 slip-out = assay: in vitro repair assay by HeLa cell extracts, long (CAG)20 slip-out; format: biochemical, human
Source text: Panel A of […] is a schematic of the in vitro repair assay. Starting DNAs and repair products released the repeat-containing fragment, which is resolved on PAGE and assessed on a molar level by Southern blotting and densitometry. Repair of different DNA substrates containing a long (CAG)20 slip-out (Panel B of FIG. 3) long (CTG)20 slip-out (Panel C of FIG. 3), a single CAG slip-out (Panel D of FIG. 3) or a single G-T mismatch (Panel E of FIG. 3), in the absence or in the presence of NA. Slipped-DNA substrates were prepared from hybrids of (CAG)50●(CTG)30, (CAG)30●(CTG)50 or of (CAG)50●(CTG)49. Repair of the G-T mismatch reconstitutes a HindIII restriction site, as shown schematically. Graphs show percentage repair efficiencies to repaired product relative to all repeat-containing fragments in the lane, values are normalized to the NA-free efficiency. […]
To determine how the binding of NA to slipped DNA structures affects repair, a series of circular slipped heteroduplex substrates was made with an excess of repeats with a nick located either 5′ or 3′ of the slip-out (FIG. 3). […] All these substrates were processed in […] by HeLa extracts and then were assessed for repair. Repair products were analyzed by Southern blotting, probed for the repeat-containing fragment, and compared with starting material, which permitted quantitative assessment of repair efficiency at a molar level. […]

## naphthyridine-azaquinolone
[1]; 50 μM NA, across 2,897 positions, control 84
  distinct sites with extreme relative mutation rates, number: 113
[1]; 50 μM NA, control 2.9%
  distinct sites with extreme relative mutation rates, percent: 3.9%
[1]; 50 μM NA, of the 15,277 variants across three replicates, saline 101
  variants with extreme mutation rates (absolute relative rate >0.5%), number: 149
[1]; 50 μM NA, saline 0.7%
  variants with extreme mutation rates, percent: 1.0%
[1]; p=0.1083, two-sample Kolmogorov-Smirnov test
  mutation rates NA- versus saline-treated: not significantly different
Long (CAG)20 slip-out
  effect on repair of long (CAG)20 slip-outs: specifically inhibits repair
